Measured values as given in patent publication US20150315188A1, “COMPOUNDS AND METHODS FOR TREATMENT OF HYPERTENSION” (MEDIVATION TECHNOLOGIES, INC., priority 2012, published 2015).

Tests used:
Design in all cases: purchased Milipore (Millipore)
[1] = target: T1, Human adrenergic α2A receptor (Homo sapiens, UniProt P08913); assay: Radioligand binding, adrenergic α2A (Protocol Group B); conditions: Protocol Group B; for Ki: estimated Ki
T1 sequence (P08913 1-465): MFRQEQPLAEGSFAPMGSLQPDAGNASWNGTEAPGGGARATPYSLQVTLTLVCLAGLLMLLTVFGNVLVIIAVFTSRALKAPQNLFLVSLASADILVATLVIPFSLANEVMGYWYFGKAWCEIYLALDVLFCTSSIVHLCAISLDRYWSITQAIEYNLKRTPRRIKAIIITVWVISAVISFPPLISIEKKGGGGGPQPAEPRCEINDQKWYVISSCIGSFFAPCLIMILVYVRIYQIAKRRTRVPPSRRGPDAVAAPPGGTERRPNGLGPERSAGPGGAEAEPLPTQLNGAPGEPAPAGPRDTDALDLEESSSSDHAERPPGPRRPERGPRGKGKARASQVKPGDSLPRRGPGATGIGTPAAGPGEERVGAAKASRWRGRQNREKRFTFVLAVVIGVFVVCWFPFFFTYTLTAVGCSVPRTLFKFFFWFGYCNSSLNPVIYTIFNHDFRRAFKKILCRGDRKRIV
In short: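 Membranes from recombinant cells expressing the receptor, in 50 mM Tris-HCl pH 7.4 with 5 mM MgCl2, 1 mM CaCl2, 0.2% BSA; compounds incubated with 2 nM [^3H]MK-912 for 60 min at 25° C. Nonspecific binding defined by 10 μM rauwolscine; filtration, counting; percent inhibition of specific binding, or estimated Ki.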

[2] = target: T2, Human adrenergic α2B receptor (Homo sapiens, UniProt P18089); assay: Radioligand binding, adrenergic α2B (Protocol Group B); conditions: Protocol Group B; for inhibition at 0.01 µM / Percentage inhibition of ligand binding, Adrenergic α2B (10 nM): 10 nM compound; for inhibition at 0.01 µM: read-out: Percentage inhibition of ligand binding, Adrenergic α2B (10 nM); for inhibition at 0.03 µM / Percentage inhibition of ligand binding, Adrenergic α2B (30 nM): 30 nM compound; for inhibition at 0.03 µM: read-out: Percentage inhibition of ligand binding, Adrenergic α2B (30 nM); for inhibition at 0.1 µM / Percentage inhibition of ligand binding, Adrenergic α2B (0.1 μM): 0.1 μM compound; for inhibition at 0.1 µM: read-out: Percentage inhibition of ligand binding, Adrenergic α2B (0.1 μM); for Ki: estimated Ki, read-out: Ki α2B; for Percentage inhibition of ligand binding, Adrenergic α2B (10 nM): 0.01 µM; for Percentage inhibition of ligand binding, Adrenergic α2B (30 nM): 0.03 µM
T2 sequence (P18089 1-450): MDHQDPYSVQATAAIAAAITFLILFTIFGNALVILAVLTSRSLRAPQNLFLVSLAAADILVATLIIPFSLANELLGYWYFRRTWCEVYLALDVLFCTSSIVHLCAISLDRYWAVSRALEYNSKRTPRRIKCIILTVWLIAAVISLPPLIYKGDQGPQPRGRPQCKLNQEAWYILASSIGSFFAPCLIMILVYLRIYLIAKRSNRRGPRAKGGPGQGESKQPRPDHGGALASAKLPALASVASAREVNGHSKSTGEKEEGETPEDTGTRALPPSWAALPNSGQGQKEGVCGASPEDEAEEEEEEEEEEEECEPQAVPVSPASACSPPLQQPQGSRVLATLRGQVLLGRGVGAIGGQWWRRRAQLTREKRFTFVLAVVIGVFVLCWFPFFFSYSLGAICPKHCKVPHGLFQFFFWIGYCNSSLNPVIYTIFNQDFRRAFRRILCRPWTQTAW
In short: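 Recombinant human α2B receptor membranes incubated with compounds in 50 mM Tris-HCl pH 7.4, 5 mM MgCl2, 1 mM CaCl2, 0.2% BSA, 1% DMSO vehicle. Non-specific binding defined with 10 μM rauwolscine. Values are percent inhibition of specific binding or estimated Ki.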

[3] = target: T3, Human adrenergic α1B receptor (Homo sapiens, UniProt P35368); assay: Radioligand binding, adrenergic α1B (Protocol Group B); conditions: Protocol Group B; for Ki: estimated Ki
T3 sequence (P35368 1-520): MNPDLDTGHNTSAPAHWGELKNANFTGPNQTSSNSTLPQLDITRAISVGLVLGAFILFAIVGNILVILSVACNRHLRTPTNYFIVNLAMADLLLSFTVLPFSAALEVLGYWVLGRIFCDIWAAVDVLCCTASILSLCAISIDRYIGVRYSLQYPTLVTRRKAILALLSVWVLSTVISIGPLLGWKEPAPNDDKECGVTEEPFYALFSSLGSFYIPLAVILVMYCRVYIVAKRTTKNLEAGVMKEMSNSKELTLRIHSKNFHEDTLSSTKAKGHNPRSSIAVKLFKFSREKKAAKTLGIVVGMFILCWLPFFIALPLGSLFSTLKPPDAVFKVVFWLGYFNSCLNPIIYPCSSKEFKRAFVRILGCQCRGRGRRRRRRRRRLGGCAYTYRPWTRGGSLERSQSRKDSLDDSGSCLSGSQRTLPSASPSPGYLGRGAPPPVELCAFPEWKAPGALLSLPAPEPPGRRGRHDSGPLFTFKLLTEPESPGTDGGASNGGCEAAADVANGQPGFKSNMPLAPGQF
In short: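 Recombinant human α1B membranes incubated with test compound and 0.3 nM [3H]prazosin, 60 min at 25 °C, in 50 mM Tris-HCl pH 7.4, 10 mM MgCl2, 1 mM EDTA; nonspecific binding with 10 μM prazosin. Filter-bound radioactivity counted; values are % inhibition of specific binding or estimated Ki.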

## CCCOC(Cn1c2c(c3cc(C)ccc31)CN(C)CC2)c1ccncc1 (single isomer, unassigned) [42a]
[1]; 0.1 μM compound, read-out: Percentage inhibition of ligand binding, Adrenergic α2A (0.1 μM)
  inhibition at 0.1 µM: 37%
[1]; 0.3 μM compound, read-out: Percentage inhibition of ligand binding, Adrenergic α2A (0.3 μM)
  inhibition at 0.3 µM: 63%
[1]
  Ki: 0.055 µM
[2]
  inhibition at 0.01 µM: 74%
  inhibition at 0.03 µM: 89%
  inhibition at 0.1 µM: 97%
  Ki: 0.0023 µM
[3]; 0.1 μM compound, read-out: Percentage inhibition of ligand binding, Adrenergic α1B (0.1 μM)
  inhibition at 0.1 µM: 44%
[3]; 0.3 μM compound
  Percentage inhibition of ligand binding, Adrenergic α1B (0.3 μM): 70%
[3]
  Ki: 0.054 µM

## CCCOC(Cn1c2c(c3cc(C)ccc31)CN(C)CC2)c1ccncc1 (single isomer, unassigned) [42b]
[1]; 0.1 μM compound
  Percentage inhibition of ligand binding, Adrenergic α2A (0.1 μM): 32%
[1]; 0.3 μM compound
  Percentage inhibition of ligand binding, Adrenergic α2A (0.3 μM): 48%
[1]
  Ki: 0.154 µM
[2]
  Percentage inhibition of ligand binding, Adrenergic α2B (10 nM): 86%
  Percentage inhibition of ligand binding, Adrenergic α2B (30 nM): 97%
  Percentage inhibition of ligand binding, Adrenergic α2B (0.1 μM): 100%
  Ki: 0.0013 µM
[3]; 0.1 μM compound
  Percentage inhibition of ligand binding, Adrenergic α1B (0.1 μM): 27%
[3]; 0.3 μM compound
  Percentage inhibition of ligand binding, Adrenergic α1B (0.3 μM): 45%
[3]
  Ki: 0.199 µM

## CCOC(Cn1c2c(c3cc(C)ccc31)CN(C)CC2)c1ccncc1 (single isomer, unassigned) [43a]
[1]; 0.1 μM compound
  Percentage inhibition of ligand binding, Adrenergic α2A (0.1 μM): 46%
[1]; 0.3 μM compound
  Percentage inhibition of ligand binding, Adrenergic α2A (0.3 μM): 63%
[1]
  Ki: 0.05 µM
[2]
  inhibition at 0.01 µM: 64%
  inhibition at 0.03 µM: 85%
  inhibition at 0.1 µM: 96%
  Ki: 0.0028 µM
[3]; 0.1 μM compound
  Percentage inhibition of ligand binding, Adrenergic α1B (0.1 μM): 29%
[3]; 0.3 μM compound
  Percentage inhibition of ligand binding, Adrenergic α1B (0.3 μM): 55%
[3]
  Ki: 0.111 µM

## CCOC(Cn1c2c(c3cc(C)ccc31)CN(C)CC2)c1ccncc1 (single isomer, unassigned) [43b]
[1]; 0.1 μM compound
  Percentage inhibition of ligand binding, Adrenergic α2A (0.1 μM): 14%
[1]; 0.3 μM compound
  Percentage inhibition of ligand binding, Adrenergic α2A (0.3 μM): 28%
[1]
  Ki: 0.374 µM
[2]
  Percentage inhibition of ligand binding, Adrenergic α2B (10 nM): 71%
  Percentage inhibition of ligand binding, Adrenergic α2B (30 nM): 89%
  Percentage inhibition of ligand binding, Adrenergic α2B (0.1 μM): 98%
  Ki: 0.0021 µM
[3]; 0.1 μM compound
  Percentage inhibition of ligand binding, Adrenergic α1B (0.1 μM): 14%
[3]; 0.3 μM compound
  Percentage inhibition of ligand binding, Adrenergic α1B (0.3 μM): 30%
[3]
  Ki: 0.278 µM

## Cc1cc(C)c2c(c1)c1c(n2CC(C)(O)c2cccnc2)CCN2CCCC12 (single isomer, unassigned) [44a]
[1]; 0.1 μM compound
  Percentage inhibition of ligand binding, Adrenergic α2A (0.1 μM): 47%
[1]; 0.3 μM compound
  Percentage inhibition of ligand binding, Adrenergic α2A (0.3 μM): 70%
[1]
  Ki: 0.114 µM
[2]
  Percentage inhibition of ligand binding, Adrenergic α2B (10 nM): 71%
  inhibition at 0.03 µM: 87%
  inhibition at 0.1 µM: 95%
  Ki: 0.0022 µM
[3]; 0.1 μM compound
  Percentage inhibition of ligand binding, Adrenergic α1B (0.1 μM): 40%
[3]; 0.3 μM compound, read-out: Percentage inhibition of ligand binding, Adrenergic α1B (0.3 μM)
  inhibition at 0.3 µM: 71%
[3]
  Ki: 0.0637 µM
